The values that follow are results of earlier work, collected in patent US8906604B2, “Store-operated calcium cellular assay” (National Center for Biological Sciences, priority 2009, dated 2014).

For this data set the following is noted: in Drosophila S2 cells; published value (Hardie et al. 1996); read-out: Kd value for Indo-1.

As to `Cc1ccc(N(CC(=O)O)CC(=O)O)c(OCCOc2cc(-c3cc4ccc(C(=O)O)cc4[nH]3)ccc2N(CC(=O)O)CC(=O)O)c1` [Indo-1], the Kd was 1160 nM.
